These results are taken from patent US11178869B2, “Microbiocidal quinoline (thio)carboxamide derivatives” (priority 2017, dated 2021).

Data set [1] has as its system Glomerella lagenarium (Colletotrichum lagenarium). The experiment in a line: Glomerella lagenarium (Colletotrichum lagenarium) / liquid culture (anthracnose). The data set is classed as cell-based. Conditions: Colletotrichum orbiculare; 200 ppm; compared to untreated control; growth inhibition photometrically 3-4 days after application; read-out: disease control.
Data set [2] concerns Magnaporthe grisea (Pyricularia oryzae). Briefly: microbe, parasite or virus in culture. The data set is classed as cell-based. Particulars: read-out: control of Magnaporthe grisea.
Data set [3] relates to Fusarium culmorum. The experiment in a line: whole plant or invertebrate. The data set is classed as in vivo, Fusarium culmorum on wheat spikelets cv. Monsun. Conditions: in Triticum aestivum, 144 h, read-out: control of Fusarium culmorum.
In another data set the test system is Pyrenophora teres. The experiment in a line: Pyrenophora teres / barley / leaf disc preventative (net blotch). The data set is classed as in vivo, Pyrenophora teres on barley leaf segments cv. Hasso. Particulars: foliar, barley leaf segments, compared to untreated control, 5-7 days after application.
The next data set deals with Sclerotinia sclerotiorum. Briefly: Sclerotinia sclerotiorum / liquid culture (cottony rot). Particulars: read-out: control of Sclerotinia sclerotiorum.
In data set [4] the test system is Botryotinia fuckeliana (Botrytis cinerea). Briefly: Botryotinia fuckeliana (Botrytis cinerea) / liquid culture (gray mould). The data set is classed as cell-based. Particulars: 72 h, 200 ppm, compared to untreated control, growth inhibition photometrically 3-4 days after application, read-out: disease control.
For data set [5], the system named is Fusarium culmorum. Briefly: microbe, parasite or virus in culture. The data set is classed as cell-based. Conditions: read-out: disease control.
For data set [6], the system named is Monographella nivalis (Microdochium nivale). The experiment in a line: Monographella nivalis (Microdochium nivale) / liquid culture (foot rot cereals). The data set is classed as cell-based. Conditions: 200 ppm, compared to untreated control, growth inhibition photometrically 4-5 days after application, read-out: disease control.
In the next data set the test system is Gaeumannomyces graminis. The experiment in a line: Gaeumannomyces graminis / liquid culture (take-all of cereals). Conditions: compared to untreated control, 4-5 days after application. The data set is classed as cell-based.

Method for Sclerotinia sclerotiorum: Sclerotinia sclerotiorum/Liquid Culture (Cottony Rot)
Mycelia fragments of a newly grown liquid culture of the fungus are directly mixed into nutrient broth (Vogels broth). After placing a (DMSO) solution of test compound into a microtiter plate (96-well format) the nutrient broth containing the fungal material is added. The test plates are incubated at 24° C. and the inhibition of growth is determined photometrically 3-4 days after application.

Take `CCC(C)(C#Cc1ccccc1)NC(=O)c1cnc2c(Cl)cccc2c1` (stereo not shown) [Compound F-11, 8-chloro-N-(1-ethyl-1-methyl-3-phenyl-prop-2-ynyl)quinoline-3-carboxamide]: the melting point was in the range of 161 to 162 °C. Moreover, the inhibition of growth at 200 ppm in data set [1] is at least 80%. In [2], the inhibition of growth at 20 ppm was at least 80%. Also, the pest or weed control at 200 ppm in the data set with Fusarium culmorum [3] is at least 80%. In addition, the pest or weed control at 200 ppm in the data set on Pyrenophora teres was at least 80%. For the same molecule, in the data set on Sclerotinia sclerotiorum, the inhibition of growth at 20 ppm is at least 80%. Besides, in data set [4], the inhibition of growth at 200 ppm was at least 80%. For the same molecule, the inhibition of growth at 200 ppm in the data set on Fusarium culmorum [5] is at least 80%. For the same molecule, the inhibition of growth at 200 ppm in data set [6] was at least 80%.
For `COc1cccc(C#CC(C)(C)NC(=O)c2cnc3c(F)cccc3c2)c1` [Compound F-29, 8-fluoro-N-[3-(3-methoxyphenyl)-1,1-dimethyl-prop-2-ynyl]quinoline-3-carboxamide], the inhibition of growth at 200 ppm (in data set [1]; in data set [4]; in the data set with Fusarium culmorum [5]; in data set [6]) was at least 80% throughout. Moreover, the pest or weed control at 200 ppm with Fusarium culmorum [3] and in the data set on Pyrenophora teres was at least 80% in each case.
For the molecule `CC(C)(C#Cc1ccccc1)NC(=O)c1cnc2c(F)cccc2c1` [Compound F-55, N-(1,1-dimethyl-3-phenyl-prop-2-ynyl)-8-fluoro-quinoline-3-carboxamide], the melting point lay in the range of 151 to 155 °C. In [1], the inhibition of growth at 200 ppm was at least 80%. The molecule also displayed a pest or weed control at 200 ppm in the data set with Pyrenophora teres of at least 80%. The inhibition of growth at 20 ppm in the data set with Gaeumannomyces graminis is at least 80%. For the same molecule, the inhibition of growth at 200 ppm in data set [4] was at least 80%. In addition, the inhibition of growth at 200 ppm in the data set with Fusarium culmorum [5] is at least 80%. Also, in [6], the inhibition of growth at 200 ppm was at least 80%.
On to `CC(C)C(C#Cc1ccccc1)NC(=O)c1cnc2c(Cl)cccc2c1` (stereo not shown) [Compound F-2, 8-chloro-N-(1-isopropyl-3-phenyl-prop-2-ynyl)quinoline-3-carboxamide], for which the melting point was in the range of 168 to 170 °C. Further, the pest or weed control at 200 ppm in the data set on Pyrenophora teres is at least 80%. For the same molecule, the inhibition of growth at 200 ppm with Fusarium culmorum [5] is at least 80%. Besides, the inhibition of growth at 200 ppm in data set [6] is at least 80%.
On to `Cc1cccc2cc(C(=O)NC(C#Cc3ccccc3)C(C)C)cnc12` (stereo not shown) [Compound F-1, N-(1-isopropyl-3-phenyl-prop-2-ynyl)-8-methyl-quinoline-3-carboxamide], for which the inhibition of growth at 20 ppm in [2] is at least 80%. Further, the pest or weed control at 200 ppm in the data set with Pyrenophora teres was at least 80%. For the same molecule, the inhibition of growth at 200 ppm (in data set [4]; with Fusarium culmorum [5]; in data set [6]) was at least 80% throughout.
Take `CC(C)C[C@@H](C#Cc1ccccc1)NC(=O)c1cnc2c(F)cccc2c1` [Compound G-4, 8-fluoro-N-[(1S)-3-methyl-1-(2-phenylethynyl)butyl]quinoline-3-carboxamide]: the inhibition of growth at 200 ppm (in data set [1]; in data set [4]; in the data set with Fusarium culmorum [5]) was at least 80% in each case. The inhibition of growth at 20 ppm (in data set [2]; in the data set on Gaeumannomyces graminis) was at least 80% throughout. Also, the pest or weed control at 200 ppm in the data set on Fusarium culmorum [3] and in the data set on Pyrenophora teres was at least 80% throughout.
`CCC(C)(C#Cc1ccccc1)NC(=O)c1cnc2c(F)cccc2c1` (stereo not shown) [Compound F-17, N-(1-ethyl-1-methyl-3-phenyl-prop-2-ynyl)-8-fluoro-quinoline-3-carboxamide]: the melting point was in the range of 129 to 132 °C. In data set [1], the inhibition of growth at 200 ppm was at least 80%. Moreover, the inhibition of growth at 20 ppm in data set [2] was at least 80%. For the same molecule, in the data set with Fusarium culmorum [3], the pest or weed control at 200 ppm is at least 80%. In the data set on Pyrenophora teres, the pest or weed control at 200 ppm is at least 80%. The inhibition of growth at 200 ppm in data set [4] was at least 80%. In the data set on Fusarium culmorum [5], the inhibition of growth at 200 ppm is at least 80%. The inhibition of growth at 200 ppm in data set [6] was at least 80%.
